Experimental findings from US20110117081A1, “FUNCTIONALIZED PYRROLIDINES AND USE THEREOF AS IAP INHIBITORS” (priority 2008, published 2011) are described below.

Molecules are shown by their SMILES.

Assay [1] deals with Ovarian adenocarcinoma SKOV3 cells. Description: SKOV3 cell viability assay (MTT). The note with it: Homo sapiens, SK-OV-3, 72 hours. The format is cell-based. The procedure: Ovarian adenocarcinoma SKOV3 cells (ATCC# HTB-77) were cultured as monolayers in McCoy's 5a medium (HyClone) supplemented with 2.2 g/L sodium bicarbonate (Gibco), 10% FBS (HyClone) and 1% penicillin/streptomycin (HyClone). Cells were seeded in tissue culture-treated 96 well plates at 5000 cells/well in 150 ul of media. After 24 hours, triplicate wells of cells were treated with various concentrations of compound (0.01 to 10000 nM) diluted in 50 ul of culture media. Cells were incubated at 37° C. (5% CO2) in the presence of compound for 72 hours. Metabolic viability of remaining cells was assessed by MTT (thiazolyl blue tetrazolium bromide, Sigma) assay. 20 ul of MTT reagent (10 mg/ml) was added per well and plates were incubated for 4 hours at 37° C. (5% CO2). The supernatant was then removed from the plate. The converted MTT product was solubilized with 100 uL of isopropanol and the absorbance was read at 570 nm using a Tecan spectrophotometer.
(§1) The percentage viability of compound-treated cells was expressed as a fraction of the absorbance/luminescence signal obtained from non-treated cells. EC50 values (corresponding to 50% cell survival in the presence of compound as compared to untreated controls) were calculated from MTT survival curves (HCT116 and SKOV3) using BioAssay software (CambridgeSoft) and from Cell Titer-Glo survival curves (synovioycte and Jurkat cells) using GraphPad Prism (Graph Pad Software Inc.). In the below chart, EC50 values are summarized as follows: a=EC50 of less than 10 nM; b=EC50 of 10-100 nM; and c=EC50 of greater than 100 nM.

For assay [2], the system named is Colorectal carcinoma HCT116 cells. The assay can be described thus: HCT116 + ETR1 cell viability assay (MTT). It is filed as cell-based. The note with it: with ETR1 (40 ng/ml), 72 hrs. The procedure: Colorectal carcinoma HCT116 cells (ATCC# CCL-247) were cultured as monolayers in 96 well plates at a density of 2000 cells per well in 100 ul of McCoy's 5a medium (HyClone) supplemented with 2.2 g/L sodium bicarbonate (Gibco), 10% FBS (HyClone) and 1% penecillin/streptomycin (HyClone) for 24 hours. Triplicate wells of cells were treated for 72 hrs at 37° C. (5% CO2) with 50 ul of HGS agonistic Trail receptor antibody, ETR1 (40 ng/ml) in combination with 50 ul of diluted compound (0.01 to 10000 nM). Metabolic viability of remaining cells was assessed by MTT assay.
as §1

For the compound `CN[C@@H](C)C(=O)N[C@H](C(=O)N1C[C@@H](NC(=O)c2ccc(C(=O)N[C@H]3C[C@@H](C(=O)N[C@H](CCc4ccccc4)c4ccccc4)N(C(=O)[C@@H](NC(=O)[C@H](C)NC)C4CCCCC4)C3)cc2)C[C@H]1C(=O)N[C@H](CCc1ccccc1)c1ccccc1)C1CCCCC1` [Compound 16], the concentration for a half-maximal effect (EC50) in assay [1] and in assay [2] was 10 to 100 nM each time.
Take `CN[C@@H](C)C(=O)N[C@H](C(=O)N1C[C@@H](NC(=O)C2CCC(C(=O)N[C@H]3C[C@@H](C(=O)N[C@@H]4CCOc5ccccc54)N(C(=O)[C@@H](NC(=O)[C@H](C)NC)C4CCCCC4)C3)CC2)C[C@H]1C(=O)N[C@@H]1CCOc2ccccc21)C1CCCCC1` (some centres unmarked) [Compound 32]: the EC50 in assay [1] and in assay [2] was < 10 nM in each case.
Consider `CN[C@@H](C)C(=O)N[C@H](C(=O)N1C[C@@H](NC(=O)c2ccc3cc(C(=O)N[C@H]4C[C@@H](C(=O)N[C@@H]5CCCc6ccccc65)N(C(=O)[C@@H](NC(=O)[C@H](C)NC)C5CCCCC5)C4)ccc3c2)C[C@H]1C(=O)N[C@@H]1CCCc2ccccc21)C1CCCCC1` [Compound 19], for which the EC50 in assay [1] and in assay [2] was < 10 nM each time.
For the compound `CN[C@@H](C)C(=O)N[C@H](C(=O)N1C[C@@H](NC(=O)c2ccc3cc(C(=O)N[C@H]4C[C@@H](C(=O)N[C@H](COCc5ccccc5)c5ccccc5)N(C(=O)[C@@H](NC(=O)[C@H](C)NC)C5CCCCC5)C4)ccc3c2)C[C@H]1C(=O)N[C@H](COCc1ccccc1)c1ccccc1)C1CCCCC1` [Compound 21], the EC50 in assay [1] is 10 to 100 nM; in assay [2], < 10 nM.
For the compound `CN[C@@H](C)C(=O)N[C@H](C(=O)N1C[C@@H](NC(=O)c2ccc(C(=O)N[C@H]3C[C@@H](C(=O)N[C@H](CCCc4ccccc4)c4ccccc4)N(C(=O)[C@@H](NC(=O)[C@H](C)NC)C4CCCCC4)C3)cc2)C[C@H]1C(=O)N[C@H](CCCc1ccccc1)c1ccccc1)C1CCCCC1` [Compound 8], the half-maximal effective concentration (EC50) in assay [1] was > 100 nM; in assay [2] it was 10 to 100 nM.
For the compound `CN[C@@H](C)C(=O)N[C@H](C(=O)N1C[C@@H](NC(=O)C2CCC(C(=O)N[C@H]3C[C@@H](C(=O)N[C@@H]4CCOc5ccc(F)cc54)N(C(=O)[C@@H](NC(=O)[C@H](C)NC)C4CCCCC4)C3)CC2)C[C@H]1C(=O)N[C@@H]1CCOc2ccc(F)cc21)C1CCCCC1` (some centres unmarked) [Compound 24], the values for the concentration for a half-maximal effect (EC50) in assay [1] and in assay [2] were 10 to 100 nM and < 10 nM, respectively.
In the case of `CN[C@@H](C)C(=O)N[C@H](C(=O)N1C[C@@H](NC(=O)c2ccc(C(=O)N[C@H]3C[C@@H](C(=O)N[C@H](Cc4ccccc4)c4ccccc4)N(C(=O)[C@@H](NC(=O)[C@H](C)NC)C4CCCCC4)C3)cc2)C[C@H]1C(=O)N[C@H](Cc1ccccc1)c1ccccc1)C1CCCCC1` [Compound 14], the EC50 in assay [1] was 10 to 100 nM; in assay [2], < 10 nM.
`CN[C@@H](C)C(=O)N[C@H](C(=O)N1C[C@@H](NC(=O)c2ccc(C(=O)N[C@H]3C[C@@H](C(=O)N[C@@H]4CCOc5ccccc54)N(C(=O)[C@@H](NC(=O)[C@H](C)NC)C4CCCCC4)C3)cc2)C[C@H]1C(=O)N[C@@H]1CCOc2ccccc21)C1CCCCC1` [Compound 31]: the EC50 in assay [1] and in assay [2] was < 10 nM each time.
Regarding `CN[C@@H](C)C(=O)N[C@H](C(=O)N1C[C@@H](NC(=O)c2ccc(-c3ccc(C(=O)N[C@H]4C[C@@H](C(=O)N[C@H](COCc5ccccc5)c5ccccc5)N(C(=O)[C@@H](NC(=O)[C@H](C)NC)C5CCCCC5)C4)cc3)cc2)C[C@H]1C(=O)N[C@H](COCc1ccccc1)c1ccccc1)C1CCCCC1` [Compound 27], the half-maximal effective concentration (EC50) in assay [1] was 10 to 100 nM; in assay [2] it was < 10 nM.
The like results for `CN[C@@H](C)C(=O)N[C@H](C(=O)N1C[C@@H](NC(=O)c2ccc(C(=O)N[C@H]3C[C@@H](C(=O)N4CCC[C@@H]4c4ccccc4)N(C(=O)[C@@H](NC(=O)[C@H](C)NC)C4CCCCC4)C3)cc2)C[C@H]1C(=O)N1CCC[C@@H]1c1ccccc1)C1CCCCC1` [Compound 30] were, in that order, > 100 nM and > 100 nM.
With `CN[C@@H](C)C(=O)N[C@H](C(=O)N1C[C@@H](NC(=O)c2ccc(-c3ccc(C(=O)N[C@H]4C[C@@H](C(=O)N[C@@H]5CCCc6ccccc65)N(C(=O)[C@@H](NC(=O)[C@H](C)NC)C5CCCCC5)C4)cc3)cc2)C[C@H]1C(=O)N[C@@H]1CCCc2ccccc21)C1CCCCC1` [Compound 9], the EC50 in assay [1] and in assay [2] was < 10 nM throughout.
For the compound `CN[C@@H](C)C(=O)N[C@H](C(=O)N1C[C@@H](NC(=O)c2ccc(C(=O)N[C@H]3C[C@@H](C(=O)NCc4ccccc4)N(C(=O)[C@@H](NC(=O)[C@H](C)NC)C4CCCCC4)C3)cc2)C[C@H]1C(=O)NCc1ccccc1)C1CCCCC1` [Compound 29], the EC50 in assay [1] and in assay [2] was < 10 nM throughout.
Take `CN[C@@H](C)C(=O)N[C@H](C(=O)N1C[C@@H](NC(=O)c2ccc(C(=O)N[C@H]3C[C@@H](C(=O)NC4c5ccccc5-c5ccccc54)N(C(=O)[C@@H](NC(=O)[C@H](C)NC)C4CCCCC4)C3)cc2)C[C@H]1C(=O)NC1c2ccccc2-c2ccccc21)C1CCCCC1` [Compound 15]: the EC50 in assay [1] and in assay [2] was < 10 nM throughout.
As for `CN[C@@H](C)C(=O)N[C@H](C(=O)N1C[C@@H](NC(=O)c2ccc(C(=O)N[C@H]3C[C@@H](C(=O)N[C@@H]4CCOc5ccc(F)cc54)N(C(=O)[C@@H](NC(=O)[C@H](C)NC)C4CCCCC4)C3)cc2)CC1C(=O)N[C@@H]1CCOc2ccc(F)cc21)C1CCCCC1` (some centres unmarked) [Compound 25], the figures for the EC50 in assay [1] and in assay [2] were 10 to 100 nM and < 10 nM, respectively.
Regarding `CN[C@@H](C)C(=O)N[C@H](C(=O)N1C[C@@H](NC(=O)c2ccc3cc(C(=O)N[C@H]4C[C@@H](C(=O)NC5c6ccccc6-c6ccccc65)N(C(=O)[C@@H](NC(=O)[C@H](C)NC)C5CCCCC5)C4)ccc3c2)C[C@H]1C(=O)NC1c2ccccc2-c2ccccc21)C1CCCCC1` [Compound 20], the EC50 in assay [1] and in assay [2] was < 10 nM throughout.
For the compound `CN[C@@H](C)C(=O)N[C@H](C(=O)N1C[C@@H](NC(=O)C2CCC(C(=O)N[C@H]3C[C@@H](C(=O)N[C@@H]4CCCc5ccccc54)N(C(=O)[C@@H](NC(=O)[C@H](C)NC)C4CCCCC4)C3)CC2)C[C@H]1C(=O)N[C@@H]1CCCc2ccccc21)C1CCCCC1` (some centres unmarked) [Compound 4], the EC50 in assay [1] and in assay [2] was < 10 nM throughout.
On to `CN[C@@H](C)C(=O)N[C@H](C(=O)N1C[C@@H](NC(=O)C2CCC(C(=O)N[C@H]3C[C@@H](C(=O)N[C@H](COCc4ccccc4)c4ccccc4)N(C(=O)[C@@H](NC(=O)[C@H](C)NC)C4CCCCC4)C3)CC2)C[C@H]1C(=O)N[C@H](COCc1ccccc1)c1ccccc1)C1CCCCC1` (some centres unmarked) [Compound 17], for which the results for the EC50 in assay [1] and in assay [2] were 10 to 100 nM and < 10 nM, respectively.
Take `CN[C@@H](C)C(=O)N[C@H](C(=O)N1C[C@@H](NC(=O)c2ccc(-c3ccc(C(=O)N[C@H]4C[C@@H](C(=O)NC(c5ccccc5)c5ccccc5)N(C(=O)[C@@H](NC(=O)[C@H](C)NC)C5CCCCC5)C4)cc3)cc2)C[C@H]1C(=O)NC(c1ccccc1)c1ccccc1)C1CCCCC1` [Compound 11]: the EC50 in assay [1] is 10 to 100 nM; in assay [2], < 10 nM.
`CN[C@@H](C)C(=O)N[C@H](C(=O)N1C[C@@H](NC(=O)C2CCC(C(=O)N[C@H]3C[C@@H](C(=O)NC4c5ccccc5-c5ccccc54)N(C(=O)[C@@H](NC(=O)[C@H](C)NC)C4CCCCC4)C3)CC2)C[C@H]1C(=O)NC1c2ccccc2-c2ccccc21)C1CCCCC1` (some centres unmarked) [Compound 2]: the figures for the EC50 in assay [1] and in assay [2] were 10 to 100 nM and < 10 nM, respectively.
For `CN[C@@H](C)C(=O)N[C@H](C(=O)N1C[C@@H](NC(=O)c2ccc3cc(C(=O)N[C@H]4C[C@@H](C(=O)NC(c5ccccc5)c5ccccc5)N(C(=O)[C@@H](NC(=O)[C@H](C)NC)C5CCCCC5)C4)ccc3c2)C[C@H]1C(=O)NC(c1ccccc1)c1ccccc1)C1CCCCC1` [Compound 23], the EC50 in assay [1] and in assay [2] was < 10 nM in each case.
With `CN[C@@H](C)C(=O)N[C@H](C(=O)N1C[C@@H](NC(=O)c2ccc(C(=O)N[C@H]3C[C@@H](C(=O)N[C@@H]4CCc5ccccc54)N(C(=O)[C@@H](NC(=O)[C@H](C)NC)C4CCCCC4)C3)cc2)C[C@H]1C(=O)N[C@@H]1CCc2ccccc21)C1CCCCC1` [Compound 6], the EC50 in assay [1] and in assay [2] was < 10 nM throughout.
In the case of `CN[C@@H](C)C(=O)N[C@H](C(=O)N1C[C@@H](NC(=O)c2ccc(C(=O)N[C@H]3C[C@@H](C(=O)N[C@H](C)c4ccccc4)N(C(=O)[C@@H](NC(=O)[C@H](C)NC)C4CCCCC4)C3)cc2)C[C@H]1C(=O)N[C@H](C)c1ccccc1)C1CCCCC1` [Compound 13], the EC50 in assay [1] and in assay [2] was < 10 nM throughout.

As usually defined, the EC50 is the concentration at which the effect is half-maximal.
